{
  "source": "the supplement of paper PMC10307832",
  "assay_in_all_cases": "relative viability (nuclei count vs DMSO), 5 days (fraction); higher = more cells survive",
  "key": {"A-427": {"test_system": "A-427", "how_it_was_run": "(§1)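 For relative viability, nuclei counts in treated wells were divided by those in vehicle wells. Lung cancer cell lines had been pin-tool dosed in 1536-well plates the day after seeding and cultured for 5 days, then fixed and stained in one step (final 0.05% Triton X-100, 1% formaldehyde, 1 ug/ml Hoechst) and imaged at 4×. Doses were one drug alone or a fixed anchor-drug dose plus five library-drug doses (not always all listed) in √10 steps, and values are duplicate-plate medians.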"}, "COR-L23": {"test_system": "COR-L23", "how_it_was_run": "as §1"}, "ChaGo-K-1": {"test_system": "ChaGo-K-1", "how_it_was_run": "as §1"}, "EKVX": {"test_system": "EKVX", "how_it_was_run": "as §1"}, "EPLC-272H": {"test_system": "EPLC-272H", "how_it_was_run": "as §1"}, "HCC-366": {"test_system": "HCC-366", "how_it_was_run": "as §1"}, "HCC-44": {"test_system": "HCC-44", "how_it_was_run": "as §1"}, "HCC-78": {"test_system": "HCC-78", "how_it_was_run": "as §1"}, "HOP-62": {"test_system": "HOP-62", "how_it_was_run": "as §1"}, "IA-LM": {"test_system": "IA-LM", "how_it_was_run": "as §1"}, "LOU-NH91": {"test_system": "LOU-NH91", "how_it_was_run": "as §1"}, "NCI-H1299": {"test_system": "NCI-H1299", "how_it_was_run": "as §1"}, "NCI-H1395": {"test_system": "NCI-H1395", "how_it_was_run": "as §1"}, "NCI-H1734": {"test_system": "NCI-H1734", "how_it_was_run": "as §1"}, "NCI-H1915": {"test_system": "NCI-H1915", "how_it_was_run": "as §1"}, "NCI-H2023": {"test_system": "NCI-H2023", "how_it_was_run": "as §1"}, "NCI-H2087": {"test_system": "NCI-H2087", "how_it_was_run": "as §1"}, "NCI-H3122": {"test_system": "NCI-H3122", "how_it_was_run": "as §1"}, "NCI-H596": {"test_system": "NCI-H596", "how_it_was_run": "as §1"}, "NCI-H838": {"test_system": "NCI-H838", "how_it_was_run": "as §1"}, "SK-MES-1": {"test_system": "SK-MES-1", "how_it_was_run": "as §1"}},
  "data": [
    {"smiles": "CCCCCCCCCCCC1=C(O)C(=O)C=C(O)C1=O", "note": "[Embelin] + CC1(C)CCC(c2ccc(Cl)cc2)=C(CN2CCN(c3ccc(C(=O)NS(=O)(=O)c4ccc(N[C@H](CCN5CCOCC5)CSc5ccccc5)c(S(=O)(=O)C(F)(F)F)c4)cc3)CC2)C1 [Navitoclax] (partner 0.5 µM)", "values": [
      {"measurement": "relative viability", "setting": "A-427; first compound 0.08 µM", "value": 0.975},
      {"measurement": "relative viability", "setting": "A-427; first compound 0.8 µM", "value": 0.929},
      {"measurement": "relative viability", "setting": "A-427; first compound 2.53 µM", "value": 0.939},
      {"measurement": "relative viability", "setting": "A-427; first compound 8 µM", "value": 1},
      {"measurement": "relative viability", "setting": "COR-L23; first compound 0.08 µM", "value": 0.991},
      {"measurement": "relative viability", "setting": "COR-L23; first compound 0.8 µM", "value": 1.32},
      {"measurement": "relative viability", "setting": "COR-L23; first compound 2.53 µM", "value": 1.19},
      {"measurement": "relative viability", "setting": "COR-L23; first compound 8 µM", "value": 1.22},
      {"measurement": "relative viability", "setting": "ChaGo-K-1; first compound 0.08 µM", "value": 1.17},
      {"measurement": "relative viability", "setting": "ChaGo-K-1; first compound 0.8 µM", "value": 1.54},
      {"measurement": "relative viability", "setting": "ChaGo-K-1; first compound 2.53 µM", "value": 0.956},
      {"measurement": "relative viability", "setting": "ChaGo-K-1; first compound 8 µM", "value": 0.777},
      {"measurement": "relative viability", "setting": "EKVX; first compound 0.08 µM", "value": 0.913},
      {"measurement": "relative viability", "setting": "EKVX; first compound 0.8 µM", "value": 0.895},
      {"measurement": "relative viability", "setting": "EKVX; first compound 2.53 µM", "value": 0.917},
      {"measurement": "relative viability", "setting": "EKVX; first compound 8 µM", "value": 0.938},
      {"measurement": "relative viability", "setting": "EPLC-272H; first compound 0.08 µM", "value": 1.07},
      {"measurement": "relative viability", "setting": "EPLC-272H; first compound 0.8 µM", "value": 1.34},
      {"measurement": "relative viability", "setting": "EPLC-272H; first compound 2.53 µM", "value": 1.21},
      {"measurement": "relative viability", "setting": "EPLC-272H; first compound 8 µM", "value": 1.11},
      {"measurement": "relative viability", "setting": "HCC-366; first compound 0.08 µM", "value": 0.953},
      {"measurement": "relative viability", "setting": "HCC-366; first compound 0.8 µM", "value": 1.16},
      {"measurement": "relative viability", "setting": "HCC-366; first compound 2.53 µM", "value": 1.13},
      {"measurement": "relative viability", "setting": "HCC-366; first compound 8 µM", "value": 1.11},
      {"measurement": "relative viability", "setting": "HCC-44; first compound 0.08 µM", "value": 0.903},
      {"measurement": "relative viability", "setting": "HCC-44; first compound 0.8 µM", "value": 0.911},
      {"measurement": "relative viability", "setting": "HCC-44; first compound 2.53 µM", "value": 1.07},
      {"measurement": "relative viability", "setting": "HCC-44; first compound 8 µM", "value": 0.923},
      {"measurement": "relative viability", "setting": "HCC-78; first compound 0.08 µM", "value": 0.797},
      {"measurement": "relative viability", "setting": "HCC-78; first compound 0.8 µM", "value": 0.931},
      {"measurement": "relative viability", "setting": "HCC-78; first compound 2.53 µM", "value": 0.863},
      {"measurement": "relative viability", "setting": "HCC-78; first compound 8 µM", "value": 0.762},
      {"measurement": "relative viability", "setting": "HOP-62; first compound 0.08 µM", "value": 0.882},
      {"measurement": "relative viability", "setting": "HOP-62; first compound 0.8 µM", "value": 1.16},
      {"measurement": "relative viability", "setting": "HOP-62; first compound 2.53 µM", "value": 1.09},
      {"measurement": "relative viability", "setting": "HOP-62; first compound 8 µM", "value": 1.22},
      {"measurement": "relative viability", "setting": "IA-LM; first compound 0.08 µM", "value": 1.03},
      {"measurement": "relative viability", "setting": "IA-LM; first compound 0.8 µM", "value": 0.87},
      {"measurement": "relative viability", "setting": "IA-LM; first compound 2.53 µM", "value": 0.92},
      {"measurement": "relative viability", "setting": "IA-LM; first compound 8 µM", "value": 0.305},
      {"measurement": "relative viability", "setting": "LOU-NH91; first compound 0.08 µM", "value": 0.77},
      {"measurement": "relative viability", "setting": "LOU-NH91; first compound 0.8 µM", "value": 1.02},
      {"measurement": "relative viability", "setting": "LOU-NH91; first compound 2.53 µM", "value": 0.837},
      {"measurement": "relative viability", "setting": "LOU-NH91; first compound 8 µM", "value": 0.637},
      {"measurement": "relative viability", "setting": "NCI-H1299; first compound 0.08 µM", "value": 1.09},
      {"measurement": "relative viability", "setting": "NCI-H1299; first compound 0.8 µM", "value": 1.1},
      {"measurement": "relative viability", "setting": "NCI-H1299; first compound 2.53 µM", "value": 1.09},
      {"measurement": "relative viability", "setting": "NCI-H1299; first compound 8 µM", "value": 1.02},
      {"measurement": "relative viability", "setting": "NCI-H1395; first compound 0.08 µM", "value": 1.18},
      {"measurement": "relative viability", "setting": "NCI-H1395; first compound 0.8 µM", "value": 1.42},
      {"measurement": "relative viability", "setting": "NCI-H1395; first compound 2.53 µM", "value": 1.18},
      {"measurement": "relative viability", "setting": "NCI-H1395; first compound 8 µM", "value": 0.982},
      {"measurement": "relative viability", "setting": "NCI-H1734; first compound 0.08 µM", "value": 0.847},
      {"measurement": "relative viability", "setting": "NCI-H1734; first compound 0.8 µM", "value": 1.09},
      {"measurement": "relative viability", "setting": "NCI-H1734; first compound 2.53 µM", "value": 1.23},
      {"measurement": "relative viability", "setting": "NCI-H1734; first compound 8 µM", "value": 0.894},
      {"measurement": "relative viability", "setting": "NCI-H1915; first compound 0.08 µM", "value": 0.822},
      {"measurement": "relative viability", "setting": "NCI-H1915; first compound 0.8 µM", "value": 0.784},
      {"measurement": "relative viability", "setting": "NCI-H1915; first compound 2.53 µM", "value": 0.793},
      {"measurement": "relative viability", "setting": "NCI-H1915; first compound 8 µM", "value": 0.796},
      {"measurement": "relative viability", "setting": "NCI-H2023; first compound 0.08 µM", "value": 1.05},
      {"measurement": "relative viability", "setting": "NCI-H2023; first compound 0.8 µM", "value": 1.05},
      {"measurement": "relative viability", "setting": "NCI-H2023; first compound 2.53 µM", "value": 1.02},
      {"measurement": "relative viability", "setting": "NCI-H2023; first compound 8 µM", "value": 0.689},
      {"measurement": "relative viability", "setting": "NCI-H2087; first compound 0.08 µM", "value": 0.892},
      {"measurement": "relative viability", "setting": "NCI-H2087; first compound 0.8 µM", "value": 1.17},
      {"measurement": "relative viability", "setting": "NCI-H2087; first compound 2.53 µM", "value": 0.93},
      {"measurement": "relative viability", "setting": "NCI-H2087; first compound 8 µM", "value": 0.989},
      {"measurement": "relative viability", "setting": "NCI-H3122; first compound 0.08 µM", "value": 1.05},
      {"measurement": "relative viability", "setting": "NCI-H3122; first compound 0.8 µM", "value": 1.01},
      {"measurement": "relative viability", "setting": "NCI-H3122; first compound 2.53 µM", "value": 0.985},
      {"measurement": "relative viability", "setting": "NCI-H3122; first compound 8 µM", "value": 1.02},
      {"measurement": "relative viability", "setting": "NCI-H596; first compound 0.08 µM", "value": 0.934},
      {"measurement": "relative viability", "setting": "NCI-H596; first compound 0.8 µM", "value": 1.06},
      {"measurement": "relative viability", "setting": "NCI-H596; first compound 2.53 µM", "value": 1.12},
      {"measurement": "relative viability", "setting": "NCI-H596; first compound 8 µM", "value": 0.908},
      {"measurement": "relative viability", "setting": "NCI-H838; first compound 0.08 µM", "value": 1.19},
      {"measurement": "relative viability", "setting": "NCI-H838; first compound 0.8 µM", "value": 1.25},
      {"measurement": "relative viability", "setting": "NCI-H838; first compound 2.53 µM", "value": 1.2},
      {"measurement": "relative viability", "setting": "NCI-H838; first compound 8 µM", "value": 1.18},
      {"measurement": "relative viability", "setting": "SK-MES-1; first compound 0.08 µM", "value": 1.23},
      {"measurement": "relative viability", "setting": "SK-MES-1; first compound 0.8 µM", "value": 1.32},
      {"measurement": "relative viability", "setting": "SK-MES-1; first compound 2.53 µM", "value": 1.25},
      {"measurement": "relative viability", "setting": "SK-MES-1; first compound 8 µM", "value": 1.43}
    ]}
  ]
}
